Laboratory results published in PubChem BioAssay (NCI).
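Exposure lasted 48 hours, with cells grown in 96-well plates and compounds tested at five concentrations. GI50 is the concentration that inhibits growth by half. TGI: concentration producing complete growth inhibition.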

Columns and labels:
Experiment in all cases: NCI anticancer screen, dose series, 48 h
786-0 renal = test system: 786-0 renal
BT-549 breast = test system: BT-549 breast
OVCAR-4 ovarian = test system: OVCAR-4 ovarian
SK-MEL-2 melanoma = test system: SK-MEL-2 melanoma
HCT-116 colon = test system: HCT-116 colon
ACHN renal = test system: ACHN renal
K-562 leukemia = test system: K-562 leukemia
HT29 colon = test system: HT29 colon
MALME-3M melanoma = test system: MALME-3M melanoma
DU-145 prostate = test system: DU-145 prostate
RPMI-8226 leukemia = test system: RPMI-8226 leukemia
M14 melanoma = test system: M14 melanoma
OVCAR-3 ovarian = test system: OVCAR-3 ovarian
MDA-MB-231 breast = test system: MDA-MB-231 breast
SK-OV-3 ovarian = test system: SK-OV-3 ovarian
HOP-62 NSCLC = test system: HOP-62 NSCLC
KM12 colon = test system: KM12 colon
SF-268 CNS = test system: SF-268 CNS
NCI-H460 lung = test system: NCI-H460 lung
MCF7 breast = test system: MCF7 breast
NCI-H23 lung = test system: NCI-H23 lung
NCI/ADR-RES ovarian = test system: NCI/ADR-RES ovarian
CCRF-CEM leukemia = test system: CCRF-CEM leukemia
MDA-MB-435 = test system: MDA-MB-435
SW-620 colon = test system: SW-620 colon
SN12C renal = test system: SN12C renal
HOP-92 NSCLC = test system: HOP-92 NSCLC
SK-MEL-5 melanoma = test system: SK-MEL-5 melanoma
IGROV1 ovarian = test system: IGROV1 ovarian
OVCAR-5 ovarian = test system: OVCAR-5 ovarian
TK-10 renal = test system: TK-10 renal
A549 NSCLC = test system: A549 NSCLC
SF-295 CNS = test system: SF-295 CNS
SNB-19 CNS = test system: SNB-19 CNS
HS 578T breast = test system: HS 578T breast
COLO 205 colon = test system: COLO 205 colon
SF-539 CNS = test system: SF-539 CNS
EKVX NSCLC = test system: EKVX NSCLC
UACC-62 melanoma = test system: UACC-62 melanoma
A498 renal = test system: A498 renal
SNB-75 CNS = test system: SNB-75 CNS
LOX IMVI melanoma = test system: LOX IMVI melanoma
HCC-2998 colon = test system: HCC-2998 colon
UACC-257 melanoma = test system: UACC-257 melanoma
NCI-H522 lung = test system: NCI-H522 lung
OVCAR-8 ovarian = test system: OVCAR-8 ovarian
HCT-15 colon = test system: HCT-15 colon
U251 CNS = test system: U251 CNS
SK-MEL-28 melanoma = test system: SK-MEL-28 melanoma
RXF 393 renal = test system: RXF 393 renal
T-47D breast = test system: T-47D breast
UO-31 renal = test system: UO-31 renal
PC-3 prostate = test system: PC-3 prostate

**Q.** With Clc1c(Cl)[n+](Cc2ccc3ccccc3c2)cn1Cc1ccc2ccccc2c1 as the compound, how does the GI50 (786-0 renal) read?
**A.** 1650 nM

**Q.** What about the TGI (786-0 renal) of the same compound?
**A.** 3110 nM

**Q.** And the GI50 (BT-549 breast)?
**A.** 1670 nM

**Q.** What about the TGI (BT-549 breast) of the same compound?
**A.** 3090 nM

**Q.** What about the GI50 (OVCAR-4 ovarian) of the same compound?
**A.** 1360 nM

**Q.** And the TGI (OVCAR-4 ovarian)?
**A.** 3000 nM

**Q.** And the GI50 (SK-MEL-2 melanoma)?
**A.** 1670 nM

**Q.** What about the TGI (SK-MEL-2 melanoma) of the same compound?
**A.** 3240 nM

**Q.** And the GI50 (HCT-116 colon)?
**A.** 1450 nM

**Q.** And the TGI (HCT-116 colon)?
**A.** 2870 nM

**Q.** What about the GI50 (ACHN renal) of the same compound?
**A.** 1920 nM

**Q.** What about the TGI (ACHN renal) of the same compound?
**A.** 3660 nM

**Q.** What about the GI50 (K-562 leukemia) of the same compound?
**A.** 1710 nM

**Q.** What about the TGI (K-562 leukemia) of the same compound?
**A.** 3730 nM

**Q.** What about the GI50 (HT29 colon) of the same compound?
**A.** 570 nM

**Q.** And the TGI (HT29 colon)?
**A.** 2010 nM

**Q.** What about the GI50 (MALME-3M melanoma) of the same compound?
**A.** 1400 nM

**Q.** And the TGI (MALME-3M melanoma)?
**A.** 3150 nM

**Q.** And the GI50 (DU-145 prostate)?
**A.** 1530 nM

**Q.** What about the TGI (DU-145 prostate) of the same compound?
**A.** 3010 nM

**Q.** What about the GI50 (RPMI-8226 leukemia) of the same compound?
**A.** 1250 nM

**Q.** And the TGI (RPMI-8226 leukemia)?
**A.** 3550 nM

**Q.** And the GI50 (M14 melanoma)?
**A.** 1210 nM

**Q.** And the TGI (M14 melanoma)?
**A.** 2800 nM

**Q.** And the GI50 (OVCAR-3 ovarian)?
**A.** 1340 nM

**Q.** And the TGI (OVCAR-3 ovarian)?
**A.** 2690 nM

**Q.** And the GI50 (MDA-MB-231 breast)?
**A.** 1420 nM

**Q.** And the TGI (MDA-MB-231 breast)?
**A.** 2930 nM

**Q.** What about the GI50 (SK-OV-3 ovarian) of the same compound?
**A.** 1390 nM

**Q.** And the TGI (SK-OV-3 ovarian)?
**A.** 3750 nM

**Q.** What about the GI50 (HOP-62 NSCLC) of the same compound?
**A.** 1260 nM

**Q.** What about the TGI (HOP-62 NSCLC) of the same compound?
**A.** 2610 nM

**Q.** What about the GI50 (KM12 colon) of the same compound?
**A.** 1530 nM

**Q.** What about the TGI (KM12 colon) of the same compound?
**A.** 3050 nM

**Q.** What about the GI50 (SF-268 CNS) of the same compound?
**A.** 1220 nM

**Q.** What about the TGI (SF-268 CNS) of the same compound?
**A.** 2550 nM

**Q.** And the GI50 (NCI-H460 lung)?
**A.** 1530 nM

**Q.** What about the TGI (NCI-H460 lung) of the same compound?
**A.** 2980 nM

**Q.** And the GI50 (MCF7 breast)?
**A.** 1320 nM

**Q.** And the TGI (MCF7 breast)?
**A.** 2880 nM

**Q.** What about the GI50 (NCI-H23 lung) of the same compound?
**A.** 1350 nM

**Q.** What about the TGI (NCI-H23 lung) of the same compound?
**A.** 3150 nM

**Q.** What about the GI50 (NCI/ADR-RES ovarian) of the same compound?
**A.** 16300 nM

**Q.** And the TGI (NCI/ADR-RES ovarian)?
**A.** 38000 nM

**Q.** What about the GI50 (CCRF-CEM leukemia) of the same compound?
**A.** 2890 nM

**Q.** And the TGI (CCRF-CEM leukemia)?
**A.** 7060 nM

**Q.** And the GI50 (MDA-MB-435)?
**A.** 1240 nM

**Q.** And the TGI (MDA-MB-435)?
**A.** 2640 nM

**Q.** And the GI50 (SW-620 colon)?
**A.** 1470 nM

**Q.** And the TGI (SW-620 colon)?
**A.** 3000 nM

**Q.** What about the GI50 (SN12C renal) of the same compound?
**A.** 1530 nM

**Q.** What about the TGI (SN12C renal) of the same compound?
**A.** 2990 nM

**Q.** And the GI50 (HOP-92 NSCLC)?
**A.** 733 nM

**Q.** And the TGI (HOP-92 NSCLC)?
**A.** 2140 nM

**Q.** What about the GI50 (SK-MEL-5 melanoma) of the same compound?
**A.** 1130 nM

**Q.** What about the TGI (SK-MEL-5 melanoma) of the same compound?
**A.** 2390 nM

**Q.** What about the GI50 (IGROV1 ovarian) of the same compound?
**A.** 1330 nM

**Q.** And the TGI (IGROV1 ovarian)?
**A.** 2930 nM

**Q.** And the GI50 (OVCAR-5 ovarian)?
**A.** 1540 nM

**Q.** What about the TGI (OVCAR-5 ovarian) of the same compound?
**A.** 3320 nM

**Q.** What about the GI50 (TK-10 renal) of the same compound?
**A.** 1580 nM

**Q.** And the TGI (TK-10 renal)?
**A.** 3110 nM

**Q.** And the GI50 (A549 NSCLC)?
**A.** 3320 nM

**Q.** And the TGI (A549 NSCLC)?
**A.** 11700 nM

**Q.** What about the GI50 (SF-295 CNS) of the same compound?
**A.** 1400 nM

**Q.** And the TGI (SF-295 CNS)?
**A.** 2820 nM

**Q.** What about the GI50 (SNB-19 CNS) of the same compound?
**A.** 1320 nM

**Q.** What about the TGI (SNB-19 CNS) of the same compound?
**A.** 2700 nM

**Q.** What about the GI50 (HS 578T breast) of the same compound?
**A.** 1710 nM

**Q.** And the TGI (HS 578T breast)?
**A.** 4410 nM

**Q.** And the GI50 (COLO 205 colon)?
**A.** 1130 nM

**Q.** What about the TGI (COLO 205 colon) of the same compound?
**A.** 2570 nM

**Q.** What about the GI50 (SF-539 CNS) of the same compound?
**A.** 1570 nM

**Q.** What about the TGI (SF-539 CNS) of the same compound?
**A.** 2980 nM

**Q.** And the GI50 (EKVX NSCLC)?
**A.** 1830 nM

**Q.** What about the TGI (EKVX NSCLC) of the same compound?
**A.** 4980 nM

**Q.** And the GI50 (UACC-62 melanoma)?
**A.** 1130 nM

**Q.** And the TGI (UACC-62 melanoma)?
**A.** 2450 nM

**Q.** And the GI50 (A498 renal)?
**A.** 1230 nM

**Q.** And the TGI (A498 renal)?
**A.** 2920 nM

**Q.** And the GI50 (SNB-75 CNS)?
**A.** 836 nM

**Q.** And the TGI (SNB-75 CNS)?
**A.** 2210 nM

**Q.** And the GI50 (LOX IMVI melanoma)?
**A.** 1260 nM

**Q.** What about the TGI (LOX IMVI melanoma) of the same compound?
**A.** 2520 nM

**Q.** And the GI50 (HCC-2998 colon)?
**A.** 1530 nM

**Q.** And the TGI (HCC-2998 colon)?
**A.** 3050 nM

**Q.** And the GI50 (UACC-257 melanoma)?
**A.** 1740 nM

**Q.** What about the TGI (UACC-257 melanoma) of the same compound?
**A.** 3510 nM

**Q.** What about the GI50 (NCI-H522 lung) of the same compound?
**A.** 1120 nM

**Q.** And the TGI (NCI-H522 lung)?
**A.** 2670 nM

**Q.** And the GI50 (OVCAR-8 ovarian)?
**A.** 1650 nM

**Q.** What about the TGI (OVCAR-8 ovarian) of the same compound?
**A.** 3300 nM

**Q.** And the GI50 (HCT-15 colon)?
**A.** 1820 nM

**Q.** And the TGI (HCT-15 colon)?
**A.** 3620 nM

**Q.** And the GI50 (U251 CNS)?
**A.** 1530 nM

**Q.** What about the TGI (U251 CNS) of the same compound?
**A.** 2940 nM

**Q.** And the GI50 (SK-MEL-28 melanoma)?
**A.** 1630 nM

**Q.** What about the TGI (SK-MEL-28 melanoma) of the same compound?
**A.** 3040 nM

**Q.** And the GI50 (RXF 393 renal)?
**A.** 1630 nM

**Q.** What about the TGI (RXF 393 renal) of the same compound?
**A.** 3100 nM

**Q.** What about the GI50 (T-47D breast) of the same compound?
**A.** 504 nM

**Q.** What about the TGI (T-47D breast) of the same compound?
**A.** 2090 nM

**Q.** And the GI50 (UO-31 renal)?
**A.** 1720 nM

**Q.** And the TGI (UO-31 renal)?
**A.** 4560 nM

**Q.** What about the GI50 (PC-3 prostate) of the same compound?
**A.** 1460 nM

**Q.** And the TGI (PC-3 prostate)?
**A.** 2870 nM

**Q.** Which GI50 (OVCAR-5 ovarian) does the source give for C#CC[C@@H]1C[C@]2(C)[C@H]3CC[C@@H]4[C@H]5C(C(=C)C)CC[C@]5(C(=O)NCCCN5CCN(CCCN)CC5)CC[C@@]4(C)[C@]3(C)CC[C@H]2C(C)(C)[C@H]1OC(C)=O (stereo partly drawn) here?
**A.** 1580 nM

**Q.** And the TGI (OVCAR-5 ovarian)?
**A.** 2950 nM
